Reference: patent US5110904A (Abbott Laboratories, priority 1990, dated 1992)
Starred links: 1 amine or outer side, 2 acyl side, 3 side chain; linkers in the order of their positions; H or OH if unused. Non-standard residues stand in square brackets, D forms with d. Residues, ends and D or L forms follow the SMILES beside them. Groups on a side chain read outwards from the residue. *: point of attachment. dAla(4-thiazolyl) = N[C@H](Cc1cscn1)C(=O)O; dPhe(4-Cl) = N[C@H](Cc1ccc(Cl)cc1)C(=O)O; d1Nal = N[C@H](Cc1cccc2ccccc12)C(=O)O; d2Nal = N[C@H](Cc1ccc2ccccc2c1)C(=O)O; X1 = CCNC[C@@H](C(=O)[*:2])N(C)[*:1]; Lys(iPr) = CC(C)NCCCC[C@H](N)C(=O)O; NMeY = CN[C@@H](Cc1ccc(O)cc1)C(=O)O; d3Pal = N[C@H](Cc1cccnc1)C(=O)O; NMeL = CN[C@@H](CC(C)C)C(=O)O; pGlu = O=C1CC[C@@H](C(=O)O)N1; Nicotinoyl = O=C(c1cccnc1)*; NMeS = CN[C@@H](CO)C(=O)O; Morpholide = C1CN(*)CCO1; CO = O=C([*:1])[*:2]; azaGly = NNC(=O)O; Sar = CNCC(=O)O

Legend:
[1] = target: T1, LH release (Rattus norvegicus, UniProt P30969); assay: In vivo LH release in castrated rats; conditions: dose producing half-maximal LH release, time integrated LH response; for ED50: rat, iv, i.v., read-out: ED50 ug/kg i.v.
T1 sequence (P30969 1-327): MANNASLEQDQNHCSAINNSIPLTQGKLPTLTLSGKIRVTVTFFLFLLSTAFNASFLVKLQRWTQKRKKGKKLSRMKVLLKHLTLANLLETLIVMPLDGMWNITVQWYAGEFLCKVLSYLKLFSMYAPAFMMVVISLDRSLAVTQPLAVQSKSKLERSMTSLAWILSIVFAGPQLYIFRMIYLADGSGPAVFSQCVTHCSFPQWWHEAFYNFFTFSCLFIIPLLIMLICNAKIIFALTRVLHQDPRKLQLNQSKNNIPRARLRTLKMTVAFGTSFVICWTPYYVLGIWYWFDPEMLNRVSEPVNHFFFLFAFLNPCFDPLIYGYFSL
Experimental: The compound to be tested is administered to castrated rats intraveneously and the serum LH concentration at various time points is measured by RIA. The time integrated LH response is calculated and the dose producing half-maximal LH release (ED50) is reported.

[2] = target: T1, LH release; assay: In vitro LH release from dissociated rat pituitary cells (agonists); assay type: cell-based; conditions: negative log of concentration producing half-maximal release of LH, 3 hours at 37° C.
[3] = target: T2, LHRH receptors (Rattus norvegicus, UniProt P30969); assay: Radioligand receptor binding assay, rat pituitary membranes; conditions: radioiodinated [D-Leu6-des Gly10]-LHRH ethyl amide 50 pM, 2 hours at 4° C., read-out: Receptor Binding pkI (converted)
T2 sequence (P30969 1-327): T1 sequence (P30969 1-327)
Experimental: The radioligand (50 pM), receptors, and compounds to be tested are coincubated for 2 hours at 4° C. Bound ligand is separated from free ligand via centrifugation and aspiration.

[4] = tested on: LH concentration in the blood; assay: In vivo LH inhibition in male castrate rats; parameters: species or system rat; conditions: AUC of log(LHt/LHi) over 24 hours, 30 ug/kg subcutaneous bolus
Experimental: The compound to be tested is administered at 30 μg/kg subcutaneously by bolus injection to male castrate rats and blood samples are collected periodically over 24 hours. The AUC (area under the curve) of the LH supression data as a function of time is calculated using the formula log (LHt /LHi) wherein LHt is the LH concentration in the blood at time t and LHi is the initial baseline value for the concentration of LH in the blood. The AUC values are negative numbers.

Row | LH Release pD2 [2] | ED50 ug/kg i.v. [1] [µg/kg] | Ki [3] [nM] | Compound | ED50 [1] [µg/kg] | AUC (24 hr. after 30 ug/kg) [4]
1 | 9.73 | 9.64 |  | CCNC[C@@H](C(=O)N[C@@H](Cc1ccc(O)cc1)C(=O)N[C@H](Cc1c[nH]c2ccccc12)C(=O)N[C@@H](CC(C)C)C(=O)N[C@@H](CCCNC(=N)N)C(=O)N1CCC[C@H]1C(=O)NCC)N(C)C(=O)[C@H](Cc1c[nH]c2ccccc12)NC(=O)[C@H](Cc1c[nH]cn1)NC(=O)CN(C)C(C)=O [Ex. 7, N-Ac-Sar-His-Trp-(3)-N-Et-(2)-N-Me-Dap-Tyr-D-Trp-Leu-Arg-Pro-NHEt] (Ac-[Sar]HW[X1]Y[dW]LRP-NHEt) |  | 
2 |  |  | 0.0316 | CC(=O)N[C@H](Cc1ccc2ccccc2c1)C(=O)N[C@H](Cc1ccc(Cl)cc1)C(=O)N[C@H](Cc1cccnc1)C(=O)N[C@@H](CO)C(=O)N(C)[C@@H](Cc1ccc(O)cc1)C(=O)N[C@H](CCCCNC(=O)c1cccnc1)C(=O)N[C@@H](CC(C)C)C(=O)N[C@@H](CCCCNC(C)C)C(=O)N1CCC[C@H]1C(=O)N[C@H](C)C(N)=O [Ex. 38, N-Ac-D-2-Nal-D-4-Cl-Phe-D-3-Pal-Ser-N-Me-Tyr-D-Lys(N-epsilon-nicotinyl)-Leu-Lys(N-epsilon-isopropyl)-Pro-D-AlaNH2] (Ac-[d2Nal][dPhe(4-Cl)][d3Pal]S[NMeY][dK](Nicotinoyl)L[Lys(iPr)]P[dA]-NH2) |  | -1000
3 |  |  | 0.0339 | CC(=O)N[C@H](Cc1ccc2ccccc2c1)C(=O)N[C@H](Cc1ccc(Cl)cc1)C(=O)N[C@H](Cc1cscn1)C(=O)N[C@@H](CO)C(=O)N(C)[C@@H](Cc1ccc(O)cc1)C(=O)N[C@H](CCCCNC(=O)c1cccnc1)C(=O)N[C@@H](CC(C)C)C(=O)N[C@@H](CCCCNC(C)C)C(=O)N1CCC[C@H]1C(=O)N[C@H](C)C(N)=O [Ex. 43, N-Ac-D-2-Nal-D-4-Cl-Phe-D-4-Thiaz-Ser-N-Me-Tyr-D-Lys-(N-epsilon-nicotinyl)-Leu-Lys(N-epsilon-isopropyl)-Pro-D-AlaNH2] (Ac-[d2Nal][dPhe(4-Cl)][dAla(4-thiazolyl)]S[NMeY][dK](Nicotinoyl)L[Lys(iPr)]P[dA]-NH2) |  | -337
4 |  |  | 0.0331 | CC(=O)N[C@H](Cc1ccc2ccccc2c1)C(=O)N[C@H](Cc1ccc(Cl)cc1)C(=O)N[C@H](Cc1cccnc1)C(=O)N[C@@H](CO)C(=O)N(C)[C@@H](Cc1ccc(O)cc1)C(=O)N[C@H](CCCCNC(=O)c1cccnc1)C(=O)N[C@@H](CC(C)C)C(=O)N[C@@H](CCCCNC(C)C)C(=O)N1CCC[C@H]1C(=O)N(C)CC(N)=O [Ex. 44, N-Ac-D-2-Nal-D-4-Cl-Phe-D-3-Pal-Ser-N-Me-Tyr-D-Lys(N-epsilon-nicotinyl)-Leu-Lys(N-epsilon-isopropyl)-Pro-SarNH2] (Ac-[d2Nal][dPhe(4-Cl)][d3Pal]S[NMeY][dK](Nicotinoyl)L[Lys(iPr)]P[Sar]-NH2) |  | -571
5 |  |  | 0.0447 | CC(=O)N(C)CC(=O)N[C@H](Cc1ccc(Cl)cc1)C(=O)N[C@H](Cc1cccc2ccccc12)C(=O)N[C@@H](CO)C(=O)N(C)[C@@H](Cc1ccc(O)cc1)C(=O)N[C@H](CCCCNC(=O)c1cccnc1)C(=O)N[C@@H](CC(C)C)C(=O)N[C@@H](CCCCNC(C)C)C(=O)N1CCC[C@H]1C(=O)N[C@H](C)C(N)=O [Ex. 63, N-Ac-Sar-D-4-Cl-Phe-D-1-Nal-Ser-N-Me-Tyr-D-Lys(N-epsilon-nicotinyl)-Leu-Lys(N-epsilon-isopropyl)-Pro-D-AlaNH2] (Ac-[Sar][dPhe(4-Cl)][d1Nal]S[NMeY][dK](Nicotinoyl)L[Lys(iPr)]P[dA]-NH2) |  | -707
6 |  |  | 0.0575 | CC(=O)NNC(=O)N[C@H](Cc1ccc(Cl)cc1)C(=O)N[C@H](Cc1cccc2ccccc12)C(=O)N[C@@H](CO)C(=O)N(C)[C@@H](Cc1ccc(O)cc1)C(=O)N[C@H](CCCCNC(=O)c1cccnc1)C(=O)N[C@@H](CC(C)C)C(=O)N[C@@H](CCCCNC(C)C)C(=O)N1CCC[C@H]1C(=O)N[C@H](C)C(N)=O [Ex. 65, N-Ac-alpha-Azagly-D-4-Cl-Phe-D-1-Nal-Ser-N-Me-Tyr-D-Lys(N-epsilon-nicotinyl)-Leu-Lys(N-epsilon-isopropyl)-Pro-D-AlaNH2] (Ac-[azaGly][dPhe(4-Cl)][d1Nal]S[NMeY][dK](Nicotinoyl)L[Lys(iPr)]P[dA]-NH2) |  | -1114
7 |  |  | 0.0302 | CC(=O)N[C@H](Cc1ccc2ccccc2c1)C(=O)N[C@H](Cc1ccc(Cl)cc1)C(=O)N[C@H](Cc1cccnc1)C(=O)N[C@@H](CO)C(=O)N(C)[C@@H](Cc1ccc(O)cc1)C(=O)N[C@H](CCCCNC(=O)c1cccnc1)C(=O)N(C)[C@@H](CC(C)C)C(=O)N[C@@H](CCCCNC(C)C)C(=O)N1CCC[C@H]1C(=O)N[C@H](C)C(N)=O [Ex. 67, N-Ac-D-2-Nal-D-4-Cl-Phe-D-3-Pal-Ser-N-Me-Tyr-D-Lys(N-epsilon-nicotinyl)-N-Me-Leu-Lys(N-epsilon-isopropyl)-Pro-D-AlaNH2] (Ac-[d2Nal][dPhe(4-Cl)][d3Pal]S[NMeY][dK](Nicotinoyl)[NMeL][Lys(iPr)]P[dA]-NH2) |  | -400
8 |  |  | 0.017 | CC(=O)N[C@H](Cc1ccc2ccccc2c1)C(=O)N[C@H](Cc1ccc(Cl)cc1)C(=O)N[C@H](Cc1cccnc1)C(=O)N[C@@H](CO)C(=O)N(C)[C@@H](Cc1ccc(O)cc1)C(=O)N[C@H](CCCCNC(=O)N1CCOCC1)C(=O)N[C@@H](CC(C)C)C(=O)N[C@@H](CCCCNC(C)C)C(=O)N1CCC[C@H]1C(=O)N[C@H](C)C(N)=O [Ex. 69] (Ac-[d2Nal][dPhe(4-Cl)][d3Pal]S[NMeY][dK]([CO-Morpholide])L[Lys(iPr)]P[dA]-NH2) |  | -467

Further lines, the compound ahead of its results:

Row | Compound | LH Release pD2 [2] | ED50 ug/kg i.v. [1] [µg/kg] | Ki [3] [nM] | ED50 [1] [µg/kg] | AUC (24 hr. after 30 ug/kg) [4]
9 | CCNC(=O)[C@@H]1CCCN1C(=O)[C@H](CCCNC(=N)N)NC(=O)[C@H](CC(C)C)NC(=O)[C@@H](CC(C)C)NC(=O)[C@H](Cc1ccc(O)cc1)NC(=O)[C@H](CO)N(C)C(=O)[C@H](Cc1c[nH]c2ccccc12)NC(=O)[C@H](Cc1c[nH]cn1)NC(=O)[C@@H]1CCC(=O)N1 [Ex. 1, (pyro)Glu-His-Trp-N-Me-Ser-Tyr-D-Leu-Leu-Arg-Pro-NHEt] ([pGlu]HW[NMeS]Y[dL]LRP-NHEt) | 9.43 |  |  | 7.2 | 
10 | CC(C)C[C@H](NC(=O)[C@@H](Cc1ccc2ccccc2c1)NC(=O)[C@H](Cc1ccc(O)cc1)NC(=O)[C@H](CO)N(C)C(=O)[C@H](Cc1c[nH]c2ccccc12)NC(=O)[C@H](Cc1c[nH]cn1)NC(=O)[C@@H]1CCC(=O)N1)C(=O)N[C@@H](CCCNC(=N)N)C(=O)N1CCC[C@H]1C(=O)NCC(N)=O [Ex. 3, (pyro)Glu-His-Trp-N-Me-Ser-Tyr-D-(2)-Nal-Leu-Arg-Pro-Gly-NH2] |  |  |  | 0.129 | 
11 | CCNC(=O)CC[C@H](NC(=O)NCC)C(=O)N[C@@H](Cc1c[nH]cn1)C(=O)N[C@@H](Cc1c[nH]c2ccccc12)C(=O)N(C)[C@@H](CO)C(=O)N[C@@H](Cc1ccc(O)cc1)C(=O)N[C@H](Cc1c[nH]c2ccccc12)C(=O)N[C@@H](CC(C)C)C(=O)N[C@@H](CCCNC(=N)N)C(=O)N1CCC[C@H]1C(=O)NCC [Ex. 12, (2)-N-(Ethylaminocarbonyl)-(5)-N-ethylamido-Glu-His-Trp-N-Me-Ser-Tyr-D-Trp- Leu-Arg-Pro-NHEt] | 9.31 |  | 1.05 | 9.9 | 
12 | CCNC(=O)[C@@H]1CCCN1C(=O)[C@H](CCCNC(=N)N)NC(=O)[C@H](CC(C)C)NC(=O)[C@@H](Cc1c[nH]c2ccccc12)NC(=O)[C@H](Cc1ccc(O)cc1)NC(=O)[C@H](CO)N(C)C(=O)[C@H](Cc1c[nH]c2ccccc12)NC(=O)[C@H](Cc1c[nH]cn1)NC(=O)CN(C)C(C)=O [Ex. 14, N-AcSar-His-Trp-N-Me-Ser-Tyr-D-Trp-Leu-Arg-Pro-NHEt] (Ac-[Sar]HW[NMeS]Y[dW]LRP-NHEt) |  |  |  | 0.39 | 
13 | CCNC(=O)[C@@H]1CCCN1C(=O)[C@H](CCCNC(=N)N)NC(=O)[C@H](CC(C)C)NC(=O)[C@@H](Cc1c[nH]c2ccccc12)NC(=O)[C@H](Cc1ccc(O)cc1)NC(=O)[C@H](CO)N(C)C(=O)[C@H](Cc1c[nH]c2ccccc12)NC(=O)[C@H](Cc1c[nH]cn1)NC(=O)[C@@H]1CCC(=O)N1 [Ex. 15, (pyro)Glu-His-Trp-N-Me-Ser-Tyr-D-Trp-Leu-Arg-Pro-NHEt] |  |  |  | 1.38 | 
14 | CC(C)C[C@H](NC(=O)CNC(=O)[C@H](Cc1ccc(O)cc1)NC(=O)[C@H](CO)NC(=O)[C@H](Cc1c[nH]c2ccccc12)NC(=O)[C@H](Cc1c[nH]cn1)NC(=O)[C@@H]1CCC(=O)N1)C(=O)N[C@@H](CCCNC(=N)N)C(=O)N1CCC[C@H]1C(=O)NCC(N)=O [LHRH, reference compound] |  |  |  | 100 | 
